Several values for one entry are separate records, joined by “and”; a condition that tells them apart may be missing. Equal values may be shown once. Read-outs that look alike come from different tables or passages of the source.
Legend:
[1] = test system: L. donovani LV82 promastigotes; assay: Luciferase-expressing promastigote assay, strain LV82; type: cell-based, Leishmania donovani; conditions: for Promast: Amast Ratio / IC90: LV82; for IC50 / IC90: Leishmania donovani; for IC50: 72 h
Method: (§1) The anti-leishmanial activity of APC against L. donovani luciferase-expressing promastigotes was determined by adding of the appropriate 100 µL parasite line (10^6 cells/mL) to the wells of a 96-well plate and adding 100 µL medium alone (controls) or 100 µL of APC compound (0.01 µg/mL–6.25 µg/mL, n = 3/treatment). The plate was incubated for 72 h at 25 °C. In combination assays, the additional compound/compounds, at a final concentration of 0.195 or 0.39 µg/mL, was added to the initial APC being tested.
(§2) Luciferin solution (1 µg/mL in 20 µL medium without FCS) was added to the appropriate wells of the 96-well plate at the end of the experiment and the amount of light emitted/well was measured using a luminometer (Biotek Synergy HT, relative light units) using a wavelength/bandwidth of 440/40 nm, or IVIS® imaging (Spectrum Living Image system®, total flux, photons/sec).
(§3) The effect of drug treatment on parasite survival was determined by calculating the mean suppression in the light emitted from the drug-treated experimental sample compared to the mean control value and used to calculate the IC50 using Grafit® software (version 5.0, Erithacus Software, East Grinstead, West Sussex, UK). The effect of drug alone on the viability of uninfected macrophages was determined using the same experimental protocol above, but cell viability was determined using an alamar blue colorimetric assay. At the end of the incubation period, cells’ 10 µL resazurin solution (0.02% w/v) was added to control and drug treated cells and the absorbance of samples was read at 575 and 595 nm. The effect of drug treatment on cell survival, which correlates with the magnitude of dye reduction, was expressed as percentage viability (or alamar blue reduction) and determined using the formula provided in the manufacturer’s protocol % alamar blue reduction=(εoxλ)(Aλ1)−(εoxλ1)(Aλ2)/(εredλ1)(A^′λ2)−(εredλ2)(A^′λ1)x100

[2] = Cytotoxicity against uninfected macrophages (alamar blue); type: cell-based, BALB/c mice; conditions: BALB/c, mouse, read-out: Macrophage mean IC50 (CC50) (converted)
Method: as §3
In the formula, ελ1 and ελ2 are constants representing the molar extinction coefficient of alamar blue at 575 and 595 nm, respectively, in the oxidized (εox) and reduced (εred) forms. Aλ1, Aλ2 and A’λ1, A’λ2 represent absorbance of test and negative control wells at 575 and 595 nm, respectively. The values of % alamar blue reduction (or % viability) were corrected for background values of negative controls containing medium without cells. Percent viability values were used to calculate the IC50 using Grafit® software (version 5.0).

[3] = test system: L. donovani 282/4 (Sb-sensitive) promastigotes; assay: Promastigote luciferase assay, Sb-sensitive strain 282/4; type: cell-based, Leishmania donovani; conditions: strain 282/4, Sb-sensitive; for IC50: Leishmania donovani
Excerpt: (§4) L. donovani cloned strains with different Sb susceptibility backgrounds were derived from isolates obtained from VL patients at the B.P. Koirala Institute of Health Sciences, Dharan, Nepal: MHOM/NP/02/BPK282/0cl4 (Sb sensitive, Sb-S). MHOM/NP/02/BPK087/0cl11 (Sb intermediate, Sb-I) and MHOM/NP/02/BPK275/0cl18 (Sb resistance, Sb-R [13]). In addition, Milt-resistant parasites raised against these three Sb sensitivity backgrounds and the Sb-sensitive strain (MHOM/ET/67:LV82) was also used in studies. Luciferase expressing promastigotes for the LV82 and Nepalese strains were prepared using previously published methods and the integrative construct (a gift from Dr D.F. Smith), designated pGL1313, contained pSSU-int fragments to facilitate integration into the ribosomal RNA locus of Leishmania.
as §1, §2, §3

[4] = test system: L. donovani 282/4 (Sb-sensitive) intracellular amastigotes; assay: Intracellular amastigote assay, Sb-sensitive strain 282/4; type: cell-based, Leishmania donovani; conditions: strain 282/4, Sb-sensitive; for IC50: Leishmania donovani; for Selectivity Index (SI50): macrophage CC50 / amastigote IC50
Excerpt: as §4
In the macrophage studies, the method described in previous studies was used as follows. […] It is possible that intracellular macrophage parasites could have been at different developmental stages at 24 h post-infection. […] Therefore, we assumed that the effect of compounds on the amastigote stage rather than the promastigotes stage was determined in in vitro macrophage studies.
The plate was incubated for a further 24 h, the medium removed, and each well washed with PBS to eliminate non-internalized parasites, which were monitored microscopically. […] Wells with macrophage and with no drug or promastigotes added were used in control experiments.
as §2
as §3, with “At the end of the incubation period, cells’ 10 µL resazurin solution (0.02% w/v) was added to control and drug treated cells and the absorbance of samples was read at 575 and 595 nm.” left out

[5] = test system: L. donovani 087/11 (Sb-intermediate) promastigotes; assay: microbe, parasite or virus in culture; type: cell-based, Leishmania donovani; conditions: for Promast: Amast Ratio: strain 087/11, Sb-intermediate; for IC50: Leishmania donovani, read-out: Mean IC50 Promastigotes; for Cross-Resistance Index (CRI50) Promast: strain 087/11, Sb-intermediate vs Sb-S
Excerpt: as §4, §2
as §3, with “At the end of the incubation period, cells’ 10 µL resazurin solution (0.02% w/v) was added to control and drug treated cells and the absorbance of samples was read at 575 and 595 nm.” left out
(§5) Cross resistance (CRI50) indexes were determined as Cross selectivity indices (CRI)=mean IC50 value for the relevant drug−resistant strain i.e., Sb−I or Sb−R / mean IC50 value drug−sensitive strain Sb−S

[6] = test system: L. donovani 275/18 (Sb-resistant) promastigotes; assay: Promastigote luciferase assay, Sb-resistant strain 275/18; type: cell-based, Leishmania donovani; conditions: for IC50: Leishmania donovani, read-out: Mean IC50 Promastigotes; for Promast: Amast Ratio: strain 275/18, Sb-resistant; for Cross-Resistance Index (CRI50) Promast: strain 275/18, Sb-resistant vs Sb-S
Excerpt: as §4
(§6) The anti-leishmanial activity of APC against L. donovani luciferase-expressing promastigotes was determined by adding of the appropriate 100 µL parasite line (10^6 cells/mL) to the wells of a 96-well plate and adding 100 µL medium alone (controls) or 100 µL of APC compound (0.01 µg/mL–6.25 µg/mL, n = 3/treatment). […].
as §2, §3, §5

[7] = test system: L. donovani 087/11 Milt-Sb-intermediate promastigotes; assay: Promastigote luciferase assay, Milt-resistant 087/11; type: cell-based, Leishmania donovani; conditions: for IC50: Leishmania donovani, read-out: Mean IC50 Value Promastigotes; for Promast: Amast Ratio / Cross-Resistance Index (CRI50) Promast: strain 087/11, Milt-Sb-intermediate
Excerpt: as §4, §6, §2, §3, §5

[8] = test system: L. donovani 275/18 Milt-Sb-resistant promastigotes; assay: Promastigote luciferase assay, Milt-resistant 275/18; type: cell-based, Leishmania donovani; conditions: for IC50: Leishmania donovani, read-out: Mean IC50 Value Promastigotes
Excerpt: as §4, §6, §2, §3, §5

[9] = strain 275/18, Milt-Sb-resistant
[10] = uninfected bone-marrow-derived macrophages

SMILES | Promast: Amast Ratio [1] | IC50 ([1]; LV82, 3 days, 25 °C) | IC90 [1] [µg/mL] | IC50 [3] | Promast: Amast Ratio [3] | IC50 [4] | Promast: Amast Ratio [5] | IC50 [6] | Promast: Amast Ratio [6] | IC50 [7] | Promast: Amast Ratio [7] | IC50 [8] | Promast: Amast Ratio [8, 9] | IC50 at 3 days [2, 10] | Selectivity Index (SI50) [4] | IC50 [5] | Cross-Resistance Index (CRI50) Promast [5] | Cross-Resistance Index (CRI50) Promast [6] | Cross-Resistance Index (CRI50) Promast [7] | further results
CCCCCCCCCCCCCCCCOP(=O)([O-])OCC[N+](C)(C)C [APC16, hexadecylphosphocholine, reference compound] | 7.00 | 0.7 µg/mL and 1.72 µM | 6.3 ± 0.1 | 0.84 µg/mL and 2.06 µM | 2.68 | 0.31 µg/mL and 760 nM | 5.15 | 1.26 µg/mL and 3.09 µM | 2.49 | 242 µg/mL and 560 µM | 19.13 | > 125 µg/mL and > 307 µM | 2.04 | – | – | – | – | – | – | IC50 at 3 days [2]: 5.08 µg/mL and 12.5 µM
CCCCCCCCCCCCCCOP(=O)([O-])OCC[N+](C)(C)C [APC14, tetradecylphosphocholine] | 7.97 | 0.2 µg/mL and 530 nM | – | 0.44 µg/mL and 1.16 µM | 3.64 | 0.12 µg/mL and 320 nM | 1.05 | 0.37 µg/mL and 970 nM | 1.31 | 232 µg/mL and 630 µM | 23.13 | > 125 µg/mL and > 329 µM | – | 40.9 µg/mL and 108 µM | 340.75 | 0.21 µg/mL and 550 nM | 0.48 | 0.84 | > 1.86 | Cross-Resistance Index (CRI50) Promast [8, 9]: 1.00
CCCCCCCCCCCCOP(=O)([O-])OCC[N+](C)(C)C [APC12, dodecylphosphocholine] | 16.46 | 0.163 µg/mL and 460 nM | 1.47 | 0.55 µg/mL and 1.56 µM | 2.09 | 0.26 µg/mL and 740 nM | 2.11 | 0.49 µg/mL and 1.39 µM | 2.10 | 184 µg/mL and 520 µM | 29.82 | > 125 µg/mL and > 356 µM | >28.09 | 35.4 µg/mL and 101 µM | 136.08 | 0.42 µg/mL and 1.19 µM | 0.76 | 0.89 | > 1.47 | Promastigotes mean IC50 ([1]; LV82, 3 days, 25 °C): 0.16 ± 0.00 µg/mL; fold more active than Milt (APC16) ([1]; promastigotes): 10 fold
